Measurements taken from patent US7371777B2, “Cyclic compound and PPAR agonist” (Eisai Co., Ltd., priority 2001, dated 2008).

Tests used:
Experiment in all cases: Determination of transcriptional activity (GAL4-PPAR LBD chimera, PLAP reporter, CV-1 cells)
Type in all cases: cell-based
PPARγ = target: T1, PPARγ (Homo sapiens, UniProt P37231); conditions: GAL4-human PPARγ LBD (174-475) chimera, PLAP activity 24 hours after addition of compound
T1 construct: 174-475 (PPARg); expressed in transfected cells; host or cells: CV-1 (ATCC CCL-70)
T1 sequence (P37231 204-505): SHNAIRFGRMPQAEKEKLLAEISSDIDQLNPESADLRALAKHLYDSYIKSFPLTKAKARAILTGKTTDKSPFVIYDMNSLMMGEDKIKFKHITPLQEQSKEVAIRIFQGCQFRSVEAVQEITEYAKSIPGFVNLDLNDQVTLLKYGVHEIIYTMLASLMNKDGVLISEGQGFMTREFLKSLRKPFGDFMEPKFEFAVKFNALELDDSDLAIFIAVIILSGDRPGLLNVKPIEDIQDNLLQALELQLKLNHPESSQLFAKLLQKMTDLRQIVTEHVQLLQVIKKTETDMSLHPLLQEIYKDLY
Source text: (§1) Determination of Transcriptional Activity
(§2) (1) Test Method: A GAL4-PPAR LBD chimera expression vector was constructed by ligating human PPAR167-468 (PPARa), 138-440 (NUC-1) and 174-475 (PPARg) amino acid regions (LBD: Ligand Binding Domain) to a yeast transcriptional factor GAL4 1-147 amino acid region. As the reporter gene, PLAP (Placental Alkaline Phosphatase) was used, and this was ligated downstream of a TK promoter containing a 5-copy GAL4 DNA binding element to construct a vector. As host cells, CV-1 (ATCC CCL-70) were used. That is, CV-1 cells were spread at a density of 5×10^5 cells on a 35-mm dish and cultured in 10% FCS/DMEM for 24 hours, and using FuGENE 6 transfection reagent, the cells were co-transfected with the GAL4-PPAR LBD expression vector and GAL4 DBD-TK-PLAP expression vector. Twentyfour hours after this transfection, the cells were spread again on a 96-well plate at a density of 1×10^4/well and further cultured for 24 hours. After 24 hours, the medium was exchanged with DMEM containing 10% FCS, which was previously treated at 65° C. for inactivating intrinsic alkaline phosphatase, and a test compound was added at an arbitrary concentration. The transcriptional activity was determined in terms of PLAP activity secreted 24 hours after addition of the compound, to calculate EC50. The PLAP activity was determined after adding […] and incubating the mixture at room temperature for 1 hour.

PPARα = target: T2, PPARα (Homo sapiens, UniProt Q07869); conditions: GAL4-human PPARα LBD (167-468) chimera, PLAP activity 24 hours after addition of compound
T2 construct: human PPAR167-468 (PPARa); expressed in transfected cells; host or cells: CV-1 (ATCC CCL-70)
T2 sequence (Q07869 167-468): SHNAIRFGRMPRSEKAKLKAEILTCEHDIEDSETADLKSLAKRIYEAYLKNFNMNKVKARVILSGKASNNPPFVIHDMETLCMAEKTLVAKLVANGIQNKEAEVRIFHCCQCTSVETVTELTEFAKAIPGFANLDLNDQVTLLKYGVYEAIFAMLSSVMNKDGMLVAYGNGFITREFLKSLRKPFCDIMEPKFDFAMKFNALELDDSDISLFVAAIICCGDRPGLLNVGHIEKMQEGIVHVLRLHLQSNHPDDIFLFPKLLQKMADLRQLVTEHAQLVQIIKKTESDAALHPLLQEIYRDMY
Source text: as §1, §2

PPARβ = target: T3, PPARβ (Homo sapiens, UniProt Q03181); conditions: GAL4-human NUC-1 LBD (138-440) chimera, PLAP activity 24 hours after addition of compound
T3 construct: 138-440 (NUC-1); expressed in transfected cells; host or cells: CV-1 (ATCC CCL-70)
T3 sequence (Q03181 138-440): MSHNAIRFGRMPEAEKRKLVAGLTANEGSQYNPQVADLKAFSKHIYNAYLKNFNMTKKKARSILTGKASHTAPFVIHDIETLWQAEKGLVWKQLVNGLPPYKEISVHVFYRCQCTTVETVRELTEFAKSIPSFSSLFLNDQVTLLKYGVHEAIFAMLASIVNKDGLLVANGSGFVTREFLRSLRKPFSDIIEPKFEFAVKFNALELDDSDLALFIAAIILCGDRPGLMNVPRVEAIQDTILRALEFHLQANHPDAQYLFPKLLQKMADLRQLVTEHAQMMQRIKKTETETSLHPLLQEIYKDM
Source text: as §1, §2

| SMILES | EC50 (PPARγ) [nM] | EC50 (PPARα) [nM] | EC50 (PPARβ) [nM] |
| --- | --- | --- | --- |
| COc1ccc(CC2(C(=O)O)CCCO2)cc1CNC(=O)c1ccc(C2CCCCC2)cc1Cl (stereo not drawn) [Ex. 6, 2-(3-{[(2-Chloro-4-cyclohexylbenzoyl)amino]methyl}-4-methoxybenzyl)tetrahydro-2-furancarboxylic acid] | 78 | 11 | 1210 |
| COc1ccc(CC2(C(=O)O)CCCO2)cc1CNC(=O)c1ccc(OC2CCCC2)cc1Cl (stereo not drawn) [Ex. 5, 2-(3-{[(2-Chloro-4-cyclopentyloxybenzoyl)amino]methyl}-4-methoxybenzyl)tetrahydro-2-furancarboxylic acid] | 40 | 15 | 1320 |
| CCCOc1ccc(C(=O)NCc2cc(CC3(C(=O)O)C=CCO3)ccc2OC)c(Cl)c1 (stereo not drawn) [Ex. 49, 2-(3-{[(2-Chloro-4-propoxybenzoyl)amino]methyl}-4-methoxybenzyl)-2,5-dihydro-2-furancarboxylic acid] | 37 | 54 | 771 |

Continued by falling EC50 (PPARγ), values first:

| EC50 (PPARγ) [nM] | EC50 (PPARα) [nM] | EC50 (PPARβ) [nM] | SMILES |
| --- | --- | --- | --- |
| 56 | 28 | 533 | CCCOc1ccc(C(=O)NCc2cc(CC3(C(=O)O)CCCO3)ccc2OC)c(Cl)c1 (stereo not drawn) [Ex. 1, 2-(3-{[(2-Chloro-4-propoxybenzoyl)amino]methyl}-4-methoxybenzyl)tetrahydro-2-furancarboxylic acid] |
| 40 | 92 | 234 | CCOc1ccc(C(=O)NCc2cc(CC3(C(=O)O)CCCO3)ccc2OCC)c(Cl)c1 (stereo not drawn) [Ex. 72, 2-(3-{[(2-Chloro-4-ethoxybenzoyl)amino]methyl}-4-ethoxybenzyl)tetrahydro-2-furancarboxylic acid] |
| 5 | 13 | 38 | CCCOc1ccc(C(=O)NCc2cc(CC3(C(=O)O)CCCO3)ccc2OCC)c(Cl)c1 (stereo not drawn) [Ex. 73, 2-(3-{[(2-Chloro-4-propoxybenzoyl)amino]methyl}-4-ethoxybenzyl)tetrahydro-2-furancarboxylic acid] |
